Experimental data published in BindingDB's records for doi:10.1016/j.bmcl.2018.10.045 (Merck, 2019).

How the values were obtained:
[1] = Inhibition of NS5B polymerase in HCV genotype 4A infected in HuH7 cells after 40 hrs by Taqman probe based RT-PCR analysis
[2] = Inhibition of NS5B polymerase E1202G/T1280I/S2197P mutant in HCV genotype 1a infected in human HuH7 replicon cells after 72 hrs in presence of 10% FBS by luciferase-based reporter assay
[3] = Inhibition of NS5B polymerase S365A mutant in HCV genotype 1A infected in HuH7 cells after 40 hrs by Taqman probe based RT-PCR analysis
[4] = Inhibition of NS5B polymerase in HCV genotype 1a infected in HuH7 cells after 40 hrs by Taqman probe based RT-PCR analysis
[5] = Inhibition of NS5B polymerase E1202G/T1280I/S2197P mutant in HCV genotype 1b infected in human HuH7 replicon cells after 72 hrs in presence of 50% human serum by luciferase-based reporter assay
[6] = Inhibition of NS5B polymerase E1202G/T1280I/S2197P mutant in HCV genotype 1b infected in human HuH7 replicon cells after 72 hrs in presence of 10% FBS by luciferase-based reporter assay
[7] = Inhibition of NS5B polymerase in HCV genotype 3A infected in HuH7 cells after 40 hrs by Taqman probe based RT-PCR analysis
[8] = Inhibition of NS5B polymerase E1202G/T1280I/S2197P mutant in HCV genotype 2a infected in human HuH7 replicon cells after 72 hrs in presence of 10% FBS by luciferase-based reporter assay
[9] = Inhibition of NS5B polymerase in HCV genotype 2A infected in HuH7 cells after 40 hrs by Taqman probe based RT-PCR analysis
[10] = Inhibition of NS5B polymerase in HCV genotype 2B infected in HuH7 cells after 40 hrs by Taqman probe based RT-PCR analysis
[11] = Inhibition of NS5B polymerase C316Y mutant in HCV genotype 1A infected in HuH7 cells after 40 hrs by Taqman probe based RT-PCR analysis
[12] = Inhibition of NS5B polymerase in HCV genotype 1b infected in HuH7 cells after 40 hrs by Taqman probe based RT-PCR analysis

## CNC(=O)c1c(-c2ccc(F)cc2)oc2cc(N(C)S(C)(=O)=O)c(-c3ccc4c(n3)-c3cc5c(F)cccc5n3CC4)cc12 [US9243002, 85]
[1]
  EC50: 1.2 nM
[2]
  EC50: 3 nM
[3]
  EC50: 6.5 nM
[4]
  EC50: 0.86 nM
[5]
  EC50: 13 nM
[6]
  EC50: 3.3 nM
[7]
  EC50: 1.1 nM
[8]
  EC50: 5.7 nM
[9]
  EC50: 6 nM
[10]
  EC50: 2.7 nM
[11]
  EC50: 8.4 nM
[12]
  EC50: 2.1 nM

## CNC(=O)c1c(-c2ccc(F)cc2)oc2cc(N(C)S(C)(=O)=O)c(-c3cc4n(c(=O)c3)CCn3c-4cc4c(F)cccc43)cc12
[1]
  EC50: 1.5 nM
[3]
  EC50: 6.4 nM
[4]
  EC50: 0.61 nM
[7]
  EC50: 0.62 nM
[9]
  EC50: 11 nM
[10]
  EC50: 2.2 nM
[11]
  EC50: 9.8 nM
[12]
  EC50: 1.3 nM

## CNC(=O)c1c(-c2ccc(F)cc2)oc2cc(N(C)S(C)(=O)=O)c(-c3ccc4c(n3)-c3cc5c(F)cccc5n3CN4)cc12
[1]
  EC50: 1.1 nM
[2]
  EC50: 5.3 nM
[3]
  EC50: 3.1 nM
[4]
  EC50: 0.9 nM
[5]
  EC50: 46 nM
[6]
  EC50: 5.3 nM
[7]
  EC50: 1 nM
[8]
  EC50: 6.4 nM
[9]
  EC50: 5.7 nM
[10]
  EC50: 2.9 nM
[11]
  EC50: 7.6 nM
[12]
  EC50: 1.8 nM

## CNC(=O)c1c(-c2ccc(F)cc2)oc2cc(N(C)S(C)(=O)=O)c(-c3ccc4c(n3)-c3cc5c(F)cccc5n3CCCC4)cc12 [US9243002, 99]
[1]
  EC50: 3.5 nM
[3]
  EC50: 42 nM
[4]
  EC50: 2 nM
[7]
  EC50: 1.9 nM
[9]
  EC50: 26 nM
[10]
  EC50: 3.8 nM
[11]
  EC50: 13 nM
[12]
  EC50: 5.2 nM

## CNC(=O)c1c(-c2ccc(F)cc2)oc2cc(N(C)S(C)(=O)=O)c(-c3ccc4ccn5c6cccc(F)c6cc5c4n3)cc12 [US9243002, 82]
[1]
  EC50: 1.2 nM
[2]
  EC50: 2.9 nM
[3]
  EC50: 4.8 nM
[4]
  EC50: 0.95 nM
[5]
  EC50: 30 nM
[6]
  EC50: 5.5 nM
[7]
  EC50: 1.2 nM
[8]
  EC50: 6.3 nM
[9]
  EC50: 6.7 nM
[10]
  EC50: 3.5 nM
[11]
  EC50: 11 nM
[12]
  EC50: 2.6 nM

## CNC(=O)c1c(-c2ccc(F)cc2)oc2cc(N(C)S(C)(=O)=O)c(-c3ccc4c(n3)-c3cc5c(F)cccc5n3CCC4)cc12 [US9243002, 72]
[1]
  EC50: 1.5 nM
[3]
  EC50: 16 nM
[4]
  EC50: 1.1 nM
[7]
  EC50: 1.2 nM
[9]
  EC50: 6.8 nM
[10]
  EC50: 6.5 nM
[11]
  EC50: 26 nM
[12]
  EC50: 1.9 nM

## CNC(=O)c1c(-c2ccc(F)cc2)oc2cc(N(C)S(C)(=O)=O)c(-c3ccc4ncn5c6cccc(F)c6cc5c4n3)cc12
[1]
  EC50: 0.63 nM
[2]
  EC50: 2 nM
[3]
  EC50: 1 nM
[4]
  EC50: 0.68 nM
[5]
  EC50: 16 nM
[6]
  EC50: 3.2 nM
[7]
  EC50: 1 nM
[8]
  EC50: 3.3 nM
[9]
  EC50: 3.4 nM
[10]
  EC50: 2.4 nM
[11]
  EC50: 3.1 nM
[12]
  EC50: 1.4 nM

## CNC(=O)c1c(-c2ccc(F)cc2)oc2cc(N(C)S(C)(=O)=O)c(-c3ccc4c(n3)-c3cc5c(F)cccc5n3C4)cc12 [US9243002, 88]
[1]
  EC50: 2.7 nM
[3]
  EC50: 34 nM
[4]
  EC50: 2.2 nM
[7]
  EC50: 3 nM
[9]
  EC50: 8.5 nM
[10]
  EC50: 3.9 nM
[11]
  EC50: 9.5 nM
[12]
  EC50: 5.1 nM
